Data as given in the kinase profiling compilation of Christmann-Franck et al. (2016).

Legend:
[1] = system: ABL1 (human), P00519 [F317I]; assay: KINOMEscan competition binding; conditions: compound 10.0 µM
ABL1 (human) = ABL1 (human) (UniProt P00519); assay: KINOMEscan competition binding; conditions: compound 10.0 µM
FES (human) = FES (human) (UniProt P07332); assay: Z-Lyte, FRET
PIP5K1C (human) = PIP5K1C (human) (UniProt O60331); assay: KINOMEscan competition binding; conditions: compound 10.0 µM
CRK2 (P.falciparum) = CRK2 (P.falciparum) (UniProt P61075); assay: KINOMEscan competition binding; conditions: compound 10.0 µM
[2] = system: LRRK2 (human), Q5S007 [G2019S]; assay: KINOMEscan competition binding; conditions: compound 10.0 µM
EIF2AK1 (human) = EIF2AK1 (human) (UniProt Q9BQI3); assay: KINOMEscan competition binding; conditions: compound 10.0 µM
DYRK1A (human) = DYRK1A (human) (UniProt Q13627); assay: KINOMEscan competition binding; conditions: compound 10.0 µM
CDK13 (human) = CDK13 (human) (UniProt Q14004); assay: KINOMEscan competition binding; conditions: compound 10.0 µM
GRK7 (human) = GRK7 (human) (UniProt Q8WTQ7); assay: KINOMEscan competition binding; conditions: compound 10.0 µM
MAP3K15 (human) = MAP3K15 (human) (UniProt Q6ZN16); assay: KINOMEscan competition binding; conditions: compound 10.0 µM
MAP3K6 (human) = MAP3K6 (human) (UniProt O95382); assay: KINOMEscan competition binding; conditions: compound 10.0 µM
NEK3 (human) = NEK3 (human) (UniProt P51956); assay: KINOMEscan competition binding; conditions: compound 10.0 µM
PIK3C2G (human) = PIK3C2G (human) (UniProt O75747); assay: KINOMEscan competition binding; conditions: compound 10.0 µM
PIK3C2G (human), sequence (O75747 whole entry, looked up): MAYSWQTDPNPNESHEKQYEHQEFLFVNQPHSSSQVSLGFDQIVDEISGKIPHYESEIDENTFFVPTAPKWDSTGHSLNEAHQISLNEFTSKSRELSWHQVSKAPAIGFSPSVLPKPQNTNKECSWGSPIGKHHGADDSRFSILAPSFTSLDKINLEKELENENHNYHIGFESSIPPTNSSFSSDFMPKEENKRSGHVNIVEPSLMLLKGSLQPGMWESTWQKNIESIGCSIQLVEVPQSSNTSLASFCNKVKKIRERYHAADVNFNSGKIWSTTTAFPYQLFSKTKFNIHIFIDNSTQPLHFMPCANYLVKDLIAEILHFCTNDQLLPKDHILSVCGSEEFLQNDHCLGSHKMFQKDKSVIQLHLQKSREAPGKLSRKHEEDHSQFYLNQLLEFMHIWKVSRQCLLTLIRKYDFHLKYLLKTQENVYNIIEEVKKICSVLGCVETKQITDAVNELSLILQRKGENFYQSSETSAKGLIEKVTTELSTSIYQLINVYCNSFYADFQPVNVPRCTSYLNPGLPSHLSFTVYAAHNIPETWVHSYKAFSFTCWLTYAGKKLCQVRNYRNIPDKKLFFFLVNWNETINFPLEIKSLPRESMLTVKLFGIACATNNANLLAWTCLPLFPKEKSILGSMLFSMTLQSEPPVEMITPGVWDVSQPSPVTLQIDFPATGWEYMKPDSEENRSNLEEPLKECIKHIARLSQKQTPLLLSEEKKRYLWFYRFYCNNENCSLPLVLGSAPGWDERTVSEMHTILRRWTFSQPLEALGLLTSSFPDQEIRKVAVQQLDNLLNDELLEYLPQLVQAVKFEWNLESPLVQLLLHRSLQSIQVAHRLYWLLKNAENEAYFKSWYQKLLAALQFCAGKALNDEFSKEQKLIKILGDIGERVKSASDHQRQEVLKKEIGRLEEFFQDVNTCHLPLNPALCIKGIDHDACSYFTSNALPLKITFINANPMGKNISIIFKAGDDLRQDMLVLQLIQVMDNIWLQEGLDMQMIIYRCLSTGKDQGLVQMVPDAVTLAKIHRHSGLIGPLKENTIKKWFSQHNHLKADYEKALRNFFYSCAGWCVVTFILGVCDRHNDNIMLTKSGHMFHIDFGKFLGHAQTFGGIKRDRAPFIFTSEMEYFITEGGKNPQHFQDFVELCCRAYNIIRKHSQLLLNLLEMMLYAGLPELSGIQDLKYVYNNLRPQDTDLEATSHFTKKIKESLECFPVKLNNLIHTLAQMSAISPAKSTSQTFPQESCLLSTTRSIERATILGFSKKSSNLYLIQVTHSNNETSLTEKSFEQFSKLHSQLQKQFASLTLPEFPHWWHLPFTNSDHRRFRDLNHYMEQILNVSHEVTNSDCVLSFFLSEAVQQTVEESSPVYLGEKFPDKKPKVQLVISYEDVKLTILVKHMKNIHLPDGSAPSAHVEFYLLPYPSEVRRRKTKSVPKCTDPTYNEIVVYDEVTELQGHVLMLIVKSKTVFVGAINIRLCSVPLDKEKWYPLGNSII

[3] = system: FLT3 (human), P36888 [R834Q]; assay: KINOMEscan competition binding; conditions: compound 10.0 µM
PIP4K2C (human) = PIP4K2C (human) (UniProt Q8TBX8); assay: KINOMEscan competition binding; conditions: compound 10.0 µM
PIP4K2C (human), sequence (Q8TBX8 whole entry, looked up): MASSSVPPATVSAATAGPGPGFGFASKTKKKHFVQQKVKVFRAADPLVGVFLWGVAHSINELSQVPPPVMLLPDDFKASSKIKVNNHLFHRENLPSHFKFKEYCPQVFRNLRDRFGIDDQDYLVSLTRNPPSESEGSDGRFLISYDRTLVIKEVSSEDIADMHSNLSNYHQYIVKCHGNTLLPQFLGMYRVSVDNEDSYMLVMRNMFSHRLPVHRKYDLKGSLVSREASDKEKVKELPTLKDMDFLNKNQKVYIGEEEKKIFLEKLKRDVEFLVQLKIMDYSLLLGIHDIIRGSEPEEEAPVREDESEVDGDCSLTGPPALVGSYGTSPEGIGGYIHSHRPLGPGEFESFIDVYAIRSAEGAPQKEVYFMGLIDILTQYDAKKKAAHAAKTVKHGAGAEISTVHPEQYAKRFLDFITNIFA

MAP2K5 (human) = MAP2K5 (human) (UniProt Q13163); assay: KINOMEscan competition binding; conditions: compound 10.0 µM
MAP2K5 (human), sequence (Q13163 whole entry, looked up): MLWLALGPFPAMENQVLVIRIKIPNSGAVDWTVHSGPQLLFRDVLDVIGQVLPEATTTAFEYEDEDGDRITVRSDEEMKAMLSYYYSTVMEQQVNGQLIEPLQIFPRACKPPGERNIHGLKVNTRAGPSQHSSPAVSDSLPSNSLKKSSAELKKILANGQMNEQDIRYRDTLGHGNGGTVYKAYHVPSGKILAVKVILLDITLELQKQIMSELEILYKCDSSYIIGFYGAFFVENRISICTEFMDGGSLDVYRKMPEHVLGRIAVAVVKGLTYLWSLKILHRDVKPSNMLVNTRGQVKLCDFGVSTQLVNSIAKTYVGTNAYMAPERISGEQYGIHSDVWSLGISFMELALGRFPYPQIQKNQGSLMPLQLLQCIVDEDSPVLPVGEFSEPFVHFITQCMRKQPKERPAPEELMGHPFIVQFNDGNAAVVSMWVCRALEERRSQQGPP

CSNK1A1 (human) = CSNK1A1 (human) (UniProt P48729); assay: KINOMEscan competition binding; conditions: compound 10.0 µM
HIPK4 (human) = HIPK4 (human) (UniProt Q8NE63); assay: KINOMEscan competition binding; conditions: compound 10.0 µM
TAOK2 (human) = TAOK2 (human) (UniProt Q9UL54); assay: KINOMEscan competition binding; conditions: compound 10.0 µM
SBK1 (human) = SBK1 (human) (UniProt Q52WX2); assay: KINOMEscan competition binding; conditions: compound 10.0 µM
DCLK2 (human) = DCLK2 (human) (UniProt Q8N568); assay: KINOMEscan competition binding; conditions: compound 10.0 µM
[4] = system: MET (human), P08581 [Y1235D]; assay: KINOMEscan competition binding; conditions: compound 10.0 µM
TBK1 (human) = TBK1 (human) (UniProt Q9UHD2); assay: KINOMEscan competition binding; conditions: compound 10.0 µM
TBK1 (human), sequence (Q9UHD2 whole entry, looked up): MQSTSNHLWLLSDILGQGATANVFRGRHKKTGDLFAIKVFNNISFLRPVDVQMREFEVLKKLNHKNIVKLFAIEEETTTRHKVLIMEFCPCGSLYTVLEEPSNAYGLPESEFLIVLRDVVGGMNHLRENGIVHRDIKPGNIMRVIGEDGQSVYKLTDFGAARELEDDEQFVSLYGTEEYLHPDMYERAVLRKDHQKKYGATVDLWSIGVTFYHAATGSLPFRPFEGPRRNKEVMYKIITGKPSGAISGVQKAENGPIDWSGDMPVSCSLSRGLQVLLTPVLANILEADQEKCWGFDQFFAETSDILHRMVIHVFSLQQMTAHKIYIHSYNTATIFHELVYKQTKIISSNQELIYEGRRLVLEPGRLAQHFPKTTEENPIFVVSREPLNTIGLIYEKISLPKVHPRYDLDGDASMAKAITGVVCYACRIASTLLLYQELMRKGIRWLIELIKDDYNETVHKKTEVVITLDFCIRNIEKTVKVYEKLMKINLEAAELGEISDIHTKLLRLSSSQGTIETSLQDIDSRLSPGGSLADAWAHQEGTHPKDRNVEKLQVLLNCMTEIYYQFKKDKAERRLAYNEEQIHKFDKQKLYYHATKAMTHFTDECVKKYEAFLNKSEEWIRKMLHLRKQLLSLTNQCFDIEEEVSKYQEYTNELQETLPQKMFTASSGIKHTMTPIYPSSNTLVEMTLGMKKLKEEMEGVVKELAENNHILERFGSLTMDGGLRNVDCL

LRRK2 (human) = LRRK2 (human) (UniProt Q5S007); assay: KINOMEscan competition binding; conditions: compound 10.0 µM
[5] = system: MET (human), P08581 [M1250T]; assay: KINOMEscan competition binding; conditions: compound 10.0 µM
[6] = system: PIK3CA (human), P42336 [E542K]; assay: KINOMEscan competition binding; conditions: compound 10.0 µM
OXSR1 (human) = OXSR1 (human) (UniProt O95747); assay: KINOMEscan competition binding; conditions: compound 10.0 µM
MAK (human) = MAK (human) (UniProt P20794); assay: KINOMEscan competition binding; conditions: compound 10.0 µM
SGK110 (human) = SGK110 (human) (UniProt P0C264); assay: KINOMEscan competition binding; conditions: compound 10.0 µM
NIM1 (human) = NIM1 (human) (UniProt Q8IY84); assay: KINOMEscan competition binding; conditions: compound 10.0 µM
MTOR (human) = MTOR (human) (UniProt P42345); assay: KINOMEscan competition binding; conditions: compound 10.0 µM
MAP3K13 (human) = MAP3K13 (human) (UniProt O43283); assay: KINOMEscan competition binding; conditions: compound 10.0 µM
MAP3K13 (human), sequence (O43283 whole entry, looked up): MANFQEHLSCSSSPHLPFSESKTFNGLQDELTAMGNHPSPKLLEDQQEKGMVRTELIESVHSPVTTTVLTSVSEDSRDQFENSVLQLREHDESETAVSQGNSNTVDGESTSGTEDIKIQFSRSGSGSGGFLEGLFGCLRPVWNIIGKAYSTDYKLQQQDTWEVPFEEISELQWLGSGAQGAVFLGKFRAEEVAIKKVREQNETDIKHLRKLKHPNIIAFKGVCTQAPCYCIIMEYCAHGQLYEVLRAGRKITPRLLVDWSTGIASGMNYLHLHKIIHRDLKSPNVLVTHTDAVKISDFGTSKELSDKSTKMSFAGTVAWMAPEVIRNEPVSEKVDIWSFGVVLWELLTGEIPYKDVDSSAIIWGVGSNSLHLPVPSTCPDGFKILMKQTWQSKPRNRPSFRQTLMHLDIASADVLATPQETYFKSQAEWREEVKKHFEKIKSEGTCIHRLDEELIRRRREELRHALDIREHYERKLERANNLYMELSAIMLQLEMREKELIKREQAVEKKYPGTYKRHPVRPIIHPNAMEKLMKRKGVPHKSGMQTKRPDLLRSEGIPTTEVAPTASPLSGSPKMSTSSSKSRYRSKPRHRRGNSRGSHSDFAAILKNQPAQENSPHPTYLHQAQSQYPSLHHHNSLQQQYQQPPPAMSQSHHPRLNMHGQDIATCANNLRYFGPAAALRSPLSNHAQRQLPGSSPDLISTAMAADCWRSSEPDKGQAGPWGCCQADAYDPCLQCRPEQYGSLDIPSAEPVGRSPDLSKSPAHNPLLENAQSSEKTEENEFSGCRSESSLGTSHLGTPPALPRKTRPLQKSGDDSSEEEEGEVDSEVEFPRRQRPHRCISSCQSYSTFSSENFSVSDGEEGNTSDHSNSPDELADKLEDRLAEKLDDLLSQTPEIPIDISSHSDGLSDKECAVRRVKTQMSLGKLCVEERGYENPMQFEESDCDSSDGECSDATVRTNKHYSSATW

[7] = system: PIK3CA (human), P42336 [H1047Y]; assay: KINOMEscan competition binding; conditions: compound 10.0 µM
[8] = system: KIT (human), P10721 [L576P]; assay: KINOMEscan competition binding; conditions: compound 10.0 µM
GRK1 (human) = GRK1 (human) (UniProt Q15835); assay: KINOMEscan competition binding; conditions: compound 10.0 µM
ICK (human) = ICK (human) (UniProt Q9UPZ9); assay: KINOMEscan competition binding; conditions: compound 10.0 µM
[9] = system: PIK3CA (human), P42336 [Q546K]; assay: KINOMEscan competition binding; conditions: compound 10.0 µM
STK32A (human) = STK32A (human) (UniProt Q8WU08); assay: KINOMEscan competition binding; conditions: compound 10.0 µM
[10] = system: EGFR (human), P00533 [T790M]; assay: KINOMEscan competition binding; conditions: compound 10.0 µM
ERN1 (human) = ERN1 (human) (UniProt O75460); assay: KINOMEscan competition binding; conditions: compound 10.0 µM
CDKL3 (human) = CDKL3 (human) (UniProt Q8IVW4); assay: KINOMEscan competition binding; conditions: compound 10.0 µM

FES (human), sequence (P07332 whole entry, looked up): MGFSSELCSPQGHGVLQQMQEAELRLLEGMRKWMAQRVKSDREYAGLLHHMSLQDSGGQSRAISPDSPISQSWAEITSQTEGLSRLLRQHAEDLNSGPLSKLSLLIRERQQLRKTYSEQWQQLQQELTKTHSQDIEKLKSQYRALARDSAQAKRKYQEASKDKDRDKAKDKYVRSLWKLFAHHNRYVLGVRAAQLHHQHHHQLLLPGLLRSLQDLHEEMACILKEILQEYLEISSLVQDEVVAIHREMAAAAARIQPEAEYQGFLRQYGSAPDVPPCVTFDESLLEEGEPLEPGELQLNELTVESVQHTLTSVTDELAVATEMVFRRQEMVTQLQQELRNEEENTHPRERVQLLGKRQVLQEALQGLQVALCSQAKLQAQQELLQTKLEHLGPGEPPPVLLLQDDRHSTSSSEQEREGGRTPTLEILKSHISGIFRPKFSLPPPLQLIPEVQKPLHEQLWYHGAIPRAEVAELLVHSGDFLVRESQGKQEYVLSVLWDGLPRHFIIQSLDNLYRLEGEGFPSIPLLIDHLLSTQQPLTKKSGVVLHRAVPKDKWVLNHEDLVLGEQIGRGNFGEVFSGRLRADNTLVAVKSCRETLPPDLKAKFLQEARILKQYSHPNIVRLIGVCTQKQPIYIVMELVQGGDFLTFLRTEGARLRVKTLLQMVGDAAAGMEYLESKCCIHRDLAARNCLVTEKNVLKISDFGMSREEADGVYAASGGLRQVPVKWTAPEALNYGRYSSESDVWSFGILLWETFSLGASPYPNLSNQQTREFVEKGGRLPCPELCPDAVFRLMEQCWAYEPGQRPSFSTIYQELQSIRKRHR

Q: Which results are given for `COc1cc(N2CCC(N3CCN(C)CC3)CC2)ccc1Nc1ncc(Cl)c(Nc2ccccc2S(=O)(=O)C(C)C)n1`?
A: kinase still bound, per cent of control [1]: 0.45%; kinase still bound, per cent of control (ABL1 (human)): 7.3%

Q: How did the IC50 (FES (human)) turn out when `CCN1CCN(Cc2ccc(NC(=O)c3ccc(C)c(Oc4ccnc5[nH]ccc45)c3)cc2C(F)(F)F)CC1` was run?
A: 298 µM

Q: What about the kinase still bound, per cent of control [1] of the same compound?
A: 0.05%

Q: What about the kinase still bound, per cent of control (ABL1 (human)) of the same compound?
A: 0.1%

Q: `CCN1CCN(Cc2ccc(NC(=O)c3ccc(C)c(/C=C/c4cnc(Nc5cc(N6CCNCC6)nc(C)n5)cn4)c3)cc2C(F)(F)F)CC1` was tested. Which IC50 (FES (human)) did it give?
A: 224 µM

Q: What about the kinase still bound, per cent of control (PIP5K1C (human)) of the same compound?
A: 65%

Q: What about the kinase still bound, per cent of control (CRK2 (P.falciparum)) of the same compound?
A: 55%

Q: What about the kinase still bound, per cent of control [2] of the same compound?
A: 75%

Q: What about the kinase still bound, per cent of control (EIF2AK1 (human)) of the same compound?
A: 100%

Q: And the kinase still bound, per cent of control (DYRK1A (human))?
A: 44%

Q: What about the kinase still bound, per cent of control (CDK13 (human)) of the same compound?
A: 46%

Q: What about the kinase still bound, per cent of control (GRK7 (human)) of the same compound?
A: 73%

Q: What about the kinase still bound, per cent of control (MAP3K15 (human)) of the same compound?
A: 100%

Q: What about the kinase still bound, per cent of control (MAP3K6 (human)) of the same compound?
A: 93%

Q: And the kinase still bound, per cent of control (NEK3 (human))?
A: 59%

Q: And the kinase still bound, per cent of control (PIK3C2G (human))?
A: 87%

Q: What about the kinase still bound, per cent of control [3] of the same compound?
A: 8.6%

Q: And the kinase still bound, per cent of control (PIP4K2C (human))?
A: 61%

Q: What about the kinase still bound, per cent of control (MAP2K5 (human)) of the same compound?
A: 0.1%

Q: What about the kinase still bound, per cent of control (CSNK1A1 (human)) of the same compound?
A: 14%

Q: And the kinase still bound, per cent of control (HIPK4 (human))?
A: 15%

Q: And the kinase still bound, per cent of control (TAOK2 (human))?
A: 5.7%

Q: And the kinase still bound, per cent of control (SBK1 (human))?
A: 82%

Q: What about the kinase still bound, per cent of control (DCLK2 (human)) of the same compound?
A: 100%

Q: What about the kinase still bound, per cent of control [4] of the same compound?
A: 93%

Q: What about the kinase still bound, per cent of control (TBK1 (human)) of the same compound?
A: 96%

Q: What about the kinase still bound, per cent of control (LRRK2 (human)) of the same compound?
A: 63%

Q: And the kinase still bound, per cent of control [5]?
A: 89%

Q: What about the kinase still bound, per cent of control [6] of the same compound?
A: 94%

Q: What about the kinase still bound, per cent of control (OXSR1 (human)) of the same compound?
A: 76%

Q: And the kinase still bound, per cent of control (MAK (human))?
A: 49%

Q: And the kinase still bound, per cent of control (SGK110 (human))?
A: 100%

Q: What about the kinase still bound, per cent of control (NIM1 (human)) of the same compound?
A: 100%

Q: What about the kinase still bound, per cent of control (MTOR (human)) of the same compound?
A: 100%

Q: What about the kinase still bound, per cent of control (MAP3K13 (human)) of the same compound?
A: 6.6%

Q: And the kinase still bound, per cent of control [7]?
A: 68%

Q: What about the kinase still bound, per cent of control [8] of the same compound?
A: 0.2%

Q: What about the kinase still bound, per cent of control (GRK1 (human)) of the same compound?
A: 100%

Q: And the kinase still bound, per cent of control (ICK (human))?
A: 71%

Q: And the kinase still bound, per cent of control [9]?
A: 100%

Q: What about the kinase still bound, per cent of control (STK32A (human)) of the same compound?
A: 100%

Q: And the kinase still bound, per cent of control [10]?
A: 9.4%

Q: What about the kinase still bound, per cent of control (ERN1 (human)) of the same compound?
A: 71%

Q: And the kinase still bound, per cent of control (CDKL3 (human))?
A: 0.55%

Q: What does the source list for `CCOc1cc(N2CCC(N3CCCCC3)CC2)ccc1Nc1nc(Nc2ccccc2S(=O)(=O)C(C)C)c2cn[nH]c2n1`?
A: IC50 (FES (human)): 67 µM; kinase still bound, per cent of control (PIP5K1C (human)): 82%; kinase still bound, per cent of control (CRK2 (P.falciparum)): 100%; kinase still bound, per cent of control [2]: 4.8%; kinase still bound, per cent of control (EIF2AK1 (human)): 100%; kinase still bound, per cent of control (DYRK1A (human)): 63%; kinase still bound, per cent of control (CDK13 (human)): 100%; kinase still bound, per cent of control (GRK7 (human)): 100%; kinase still bound, per cent of control (MAP3K15 (human)): 77%; kinase still bound, per cent of control (MAP3K6 (human)): 99%; kinase still bound, per cent of control (NEK3 (human)): 76%; kinase still bound, per cent of control (PIK3C2G (human)): 100%; kinase still bound, per cent of control [3]: 100%; kinase still bound, per cent of control (PIP4K2C (human)): 100%; kinase still bound, per cent of control (MAP2K5 (human)): 55%; kinase still bound, per cent of control (CSNK1A1 (human)): 55%; kinase still bound, per cent of control (HIPK4 (human)): 44%; kinase still bound, per cent of control (TAOK2 (human)): 66%; kinase still bound, per cent of control (SBK1 (human)): 57%; kinase still bound, per cent of control (DCLK2 (human)): 19%; kinase still bound, per cent of control [4]: 100%; kinase still bound, per cent of control (TBK1 (human)): 100%; kinase still bound, per cent of control (LRRK2 (human)): 0.65%; kinase still bound, per cent of control [5]: 100%; kinase still bound, per cent of control [6]: 100%; kinase still bound, per cent of control (OXSR1 (human)): 0.05%; kinase still bound, per cent of control (MAK (human)): 100%; kinase still bound, per cent of control (SGK110 (human)): 100%; kinase still bound, per cent of control (NIM1 (human)): 100%; kinase still bound, per cent of control (MTOR (human)): 86%; kinase still bound, per cent of control (MAP3K13 (human)): 100%; kinase still bound, per cent of control [7]: 100%; kinase still bound, per cent of control [8]: 67%; kinase still bound, per cent of control (GRK1 (human)): 98%; kinase still bound, per cent of control (ICK (human)): 89%; kinase still bound, per cent of control [9]: 100%; kinase still bound, per cent of control (STK32A (human)): 32%; kinase still bound, per cent of control [10]: 0.25%; kinase still bound, per cent of control (ERN1 (human)): 92%; kinase still bound, per cent of control (CDKL3 (human)): 100%
